Data: ChEMBL document CHEMBL1145278, “Inhibitors of HCV NS5B polymerase. Part 2: Evaluation of the northern region of (2Z)-2-benzoylamino-3-(4-phenoxy-phenyl)-acrylic acid” (Bioorg Med Chem Lett, 2005)
pIC50: −log10 of the molar value.

Experiments:
[1] = Maximum concentration upon oral administration to rat at 5 mg/kg; assay type: ADME, organism-based; parameters: dose 5 mg/kg, route oral; conditions: in vivo
[2] = molecular target: RNA-directed RNA polymerase (Hepacivirus hominis, UniProt O39930); experiment: Inhibitory concentration against RNA dependent RNA polymerase Nonstructural protein 5B (HCV NS5B polymerase) in Hepatitis C virus
RNA-directed RNA polymerase, sequence (O39930 whole entry): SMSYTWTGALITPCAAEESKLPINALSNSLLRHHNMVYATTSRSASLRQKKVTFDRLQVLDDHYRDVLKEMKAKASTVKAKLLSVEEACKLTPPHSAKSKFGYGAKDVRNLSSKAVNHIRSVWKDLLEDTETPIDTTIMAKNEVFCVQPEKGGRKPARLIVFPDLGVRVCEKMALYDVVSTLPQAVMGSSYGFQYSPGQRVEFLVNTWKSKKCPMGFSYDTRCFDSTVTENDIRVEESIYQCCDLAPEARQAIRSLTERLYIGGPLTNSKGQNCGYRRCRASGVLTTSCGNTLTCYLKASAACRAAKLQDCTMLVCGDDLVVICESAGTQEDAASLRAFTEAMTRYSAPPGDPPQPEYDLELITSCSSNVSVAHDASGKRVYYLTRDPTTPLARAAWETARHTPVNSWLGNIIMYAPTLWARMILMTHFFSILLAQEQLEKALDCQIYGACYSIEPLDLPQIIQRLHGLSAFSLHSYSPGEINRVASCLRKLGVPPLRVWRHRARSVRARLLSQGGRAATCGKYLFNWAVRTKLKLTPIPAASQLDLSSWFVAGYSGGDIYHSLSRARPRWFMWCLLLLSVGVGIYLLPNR

[3] = molecular target: RNA-directed RNA polymerase (Hepacivirus hominis) (UniProt O39930); experiment: Ratio for cellular to RNA dependent RNA polymerase Nonstructural protein 5B activity in Hepatitis C virus
RNA-directed RNA polymerase (Hepacivirus hominis), sequence (O39930 1-591): as the sequence (O39930 whole entry) above

[4] = molecular target: RNA-directed RNA polymerase (Hepacivirus hominis) (UniProt O39930); experiment: Effective dose for RNA dependent RNA polymerase Nonstructural protein 5B (HCV NS5B polymerase) in Hepatitis C virus
Rattus norvegicus [5] = experiment: Oral bioavailability in rat; assay type: functional, organism-based
Rattus norvegicus [6] = experiment: Half life was determined upon oral administration to rat; assay type: functional, organism-based
[7] = molecular target: RNA-directed RNA polymerase (Hepacivirus hominis) (UniProt O39930); experiment: Cytotoxic concentration against RNA dependent RNA polymerase Nonstructural protein 5B (HCV NS5B polymerase) in Hepatitis C virus
[8] = Clearance measured in Sprague Dawley rat dosed at 5mg/kg; assay type: ADME, organism-based; conditions: in vivo

| SMILES | Cmax [1] [µM] | pIC50 [2] | Ratio [3] | ED50 [4] [µM] | bioavailability (Rattus norvegicus [5]) [%] | T1/2 (Rattus norvegicus [6]) [h] | CC50 [7] [µM] | clearance [8] [mL/min/kg] |
| --- | --- | --- | --- | --- | --- | --- | --- | --- |
| O=C(NCCO)/C(=C/c1ccc(Oc2ccccc2Br)cc1)NC(=O)c1ccccc1 | 1.5 | 5.57 | 3 | 8 | 76 | 1 | > 50 | 53.3 |
| Cc1ccc(C(=O)N/C(=C\c2ccc(Oc3ccccc3Br)cc2)C(=O)O)cc1 | – | 6.60 | – | > 100 | – | – | > 100 | – |
| O=C(Cc1ccc(C(F)(F)F)cc1)N/C(=C\c1ccc(Oc2ccccc2Br)cc1)C(=O)O | – | 6.00 | – | > 100 | – | – | 18 | – |
| O=C(CCc1ccc(Cl)cc1)N/C(=C\c1ccc(Oc2ccccc2Br)cc1)C(=O)O | – | 6.30 | – | > 100 | – | – | > 100 | – |
| O=C(CC1CCCC1)N/C(=C\c1ccc(Oc2ccccc2Br)cc1)C(=O)O | – | 6.07 | – | > 100 | – | – | – | – |
| O=C(CCc1ccc(C(F)(F)F)cc1)N/C(=C\c1ccc(Oc2ccccc2Br)cc1)C(=O)O | – | 6.43 | – | > 100 | – | – | > 100 | – |
| O=C(Cc1ccc(Br)cc1)N/C(=C\c1ccc(Oc2ccccc2Br)cc1)C(=O)O | – | 6.09 | – | > 100 | – | – | > 100 | – |
| O=C(O)/C(=C/c1ccc(Oc2ccccc2Br)cc1)NC(=O)C1CC2CCC1C2 (stereo unspecified) | – | 7.00 | – | > 100 | – | – | – | – |
| O=C(O)/C(=C/c1ccc(Oc2ccccc2Br)cc1)NC(=O)c1ccc(F)cc1F | – | 6.64 | – | > 100 | – | – | > 100 | – |
| O=C(O)/C(=C/c1ccc(Oc2ccccc2Br)cc1)NC(=O)c1ccc(Br)cc1 | – | 6.92 | – | > 100 | – | – | > 100 | – |
| O=C(O)/C(=C/c1ccc(Oc2ccccc2Br)cc1)NC(=O)c1cccc(F)c1 | – | 7.05 | – | 53 | – | – | > 100 | – |
| O=C(NCc1ccccc1)/C(=C/c1ccc(Oc2ccccc2Br)cc1)NC(=O)c1ccccc1 | – | < 4.00 | – | > 50 | – | – | > 50 | – |
| O=C(Nc1ccccc1C(=O)O)/C(=C/c1ccc(Oc2ccccc2Br)cc1)NC(=O)c1ccccc1 | – | 6.40 | – | > 50 | – | – | > 50 | – |
| O=C(O)CCCC(=O)N/C(=C\c1ccc(Oc2ccccc2I)cc1)C(=O)O | – | 6.08 | – | > 100 | – | – | – | – |
| O=C(Nc1ccccc1)/C(=C/c1ccc(Oc2ccccc2Br)cc1)NC(=O)c1ccccc1 | – | < 4.00 | – | > 50 | – | – | > 50 | – |
| O=C(CCc1ccc(F)cc1)N/C(=C\c1ccc(Oc2ccccc2Br)cc1)C(=O)O | – | 6.22 | – | > 100 | – | – | > 100 | – |
| CC(O)C(=O)N/C(=C\c1ccc(Oc2ccccc2I)cc1)C(=O)O (stereo unspecified) | – | 5.32 | – | > 100 | – | – | – | – |
| O=C(O)/C(=C/c1ccc(Oc2ccccc2Br)cc1)NC(=O)c1ccccc1F | – | 6.74 | – | > 100 | – | – | > 100 | – |
| O=C(Cc1ccc(Cl)cc1)N/C(=C\c1ccc(Oc2ccccc2Br)cc1)C(=O)O | – | 6.03 | – | > 100 | – | – | > 100 | – |
| O=C(O)/C(=C/c1ccc(Oc2ccccc2I)cc1)NC(=O)C(O)c1ccccc1 (stereo unspecified) | – | 5.51 | – | > 100 | – | – | – | – |
| O=C(O)/C(=C/c1ccc(Oc2ccccc2Br)cc1)NC(=O)c1ccc(F)c(F)c1 | – | 6.64 | – | > 100 | – | – | > 100 | – |
| O=C(Nc1ccc(O)cc1)/C(=C/c1ccc(Oc2ccccc2Br)cc1)NC(=O)c1ccccc1 | – | 4.92 | – | > 50 | – | – | 22 | – |
| CCc1ccccc1Oc1ccc(/C=C(\NC(=O)CCC2CCCC2)C(=O)O)cc1 | – | 5.15 | 2 | 15 | – | – | > 100 | – |
| O=C(O)/C(=C/c1ccc(Oc2ccccc2Br)cc1)NC(=O)c1ccccc1 | 9 | – | 280 | 28 | 21 | 1.5 | > 100 | 3.33 |
| CCc1ccccc1C(=O)N/C(=C\c1ccc(Oc2ccccc2Br)cc1)C(=O)O | – | 7.30 | – | 70 | – | – | > 100 | – |

| SMILES | Cmax [1] [µM] | pIC50 [2] | Ratio [3] | ED50 [4] [µM] | bioavailability (Rattus norvegicus [5]) [%] | T1/2 (Rattus norvegicus [6]) [h] | CC50 [7] [µM] | clearance [8] [mL/min/kg] |
| --- | --- | --- | --- | --- | --- | --- | --- | --- |
| O=C(Nc1cccc(O)c1)/C(=C/c1ccc(Oc2ccccc2Br)cc1)NC(=O)c1ccccc1 | – | 5.72 | – | 15 | – | – | 25 | – |
| Nc1ccc(Oc2ccc(/C=C(\NC(=O)CCC3CCCC3)C(=O)O)cc2)c(C(F)(F)F)c1 | – | 4.85 | 0.4 | 5 | – | – | > 50 | – |
| O=C(CCC1CCCCC1)N/C(=C\c1ccc(Oc2ccccc2Br)cc1)C(=O)O | – | 4.89 | – | > 100 | – | – | – | – |
| O=C(O)/C(=C/c1ccc(Oc2ccccc2Br)cc1)NC(=O)C1CCCCC1 | – | 6.70 | – | > 100 | – | – | – | – |
| O=C(O)CNC(=O)/C(=C/c1ccc(Oc2ccccc2Br)cc1)NC(=O)c1ccccc1 | – | 7.22 | – | > 50 | – | – | > 50 | – |
| O=C(Nc1ccccc1O)/C(=C/c1ccc(Oc2ccccc2Br)cc1)NC(=O)c1ccccc1 | – | 4.82 | – | > 50 | – | – | > 50 | – |
| O=C(O)/C(=C/c1ccc(Oc2ccccc2Br)cc1)NC(=O)C12CC3CC(CC(C3)C1)C2 | – | – | – | > 100 | – | – | – | – |
| NC(=O)/C(=C/c1ccc(Oc2ccccc2Br)cc1)NC(=O)c1ccccc1 | – | 6.30 | – | 20 | – | – | 45 | – |
| O=C(CCC1CCCC1)N/C(=C\c1ccc(Oc2ccccc2Br)cc1)C(=O)O | – | 5.22 | 2 | 12 | – | – | > 100 | – |
| O=C(CCC1CCCC1)N/C(=C\c1ccc(Oc2ccccc2C(F)(F)F)cc1)C(=O)O | – | 5.20 | 0.7 | 5 | – | – | > 100 | – |
| O=C(O)/C(=C/c1ccc(Oc2ccccc2I)cc1)NC(=O)C1CC1 | – | 5.55 | – | > 100 | – | – | – | – |
| O=C(O)CCC(=O)N/C(=C\c1ccc(Oc2ccccc2I)cc1)C(=O)O | – | 6.10 | – | > 100 | – | – | – | – |
| O=C(O)/C(=C/c1ccc(Oc2c(F)cccc2Br)cc1)NC(=O)c1ccccc1 | – | – | – | 60 | – | – | – | – |
| O=C(O)/C(=C/c1ccc(Oc2ccccc2Br)cc1)NC(=O)c1ccccc1O | – | 7.10 | – | > 100 | – | – | > 100 | – |
| O=C(O)/C(=C/c1ccc(Oc2ccccc2Br)cc1)NC(=O)c1ccc(Cl)cc1 | – | 6.96 | – | > 100 | – | – | > 100 | – |
| O=C(CO)N/C(=C\c1ccc(Oc2ccccc2I)cc1)C(=O)O | – | 5.70 | – | > 100 | – | – | – | – |
| O=C(CC1CCCCC1)N/C(=C\c1ccc(Oc2ccccc2Br)cc1)C(=O)O | – | 5.66 | – | > 100 | – | – | – | – |
| NNC(=O)/C(=C/c1ccc(Oc2ccccc2Br)cc1)NC(=O)c1ccccc1 | – | 6.00 | – | > 50 | – | – | > 50 | – |
| O=C(Cc1ccc(I)cc1)N/C(=C\c1ccc(Oc2ccccc2Br)cc1)C(=O)O | – | 6.00 | – | > 100 | – | – | > 100 | – |
| O=C(CCC1CCCC1)N/C(=C\c1ccc(Oc2ccc(F)cc2Br)cc1)C(=O)O | – | 4.82 | 0.8 | 12 | – | – | > 100 | – |
| CONC(=O)/C(=C/c1ccc(Oc2ccccc2Br)cc1)NC(=O)c1ccccc1 | – | 6.10 | – | > 50 | – | – | 22 | – |
| Cc1ccc(CCC(=O)N/C(=C\c2ccc(Oc3ccccc3Br)cc2)C(=O)O)cc1 | – | 5.59 | – | > 100 | – | – | > 100 | – |
| O=C(Cc1ccc(F)cc1)N/C(=C\c1ccc(Oc2ccccc2Br)cc1)C(=O)O | – | 5.66 | – | > 100 | – | – | > 100 | – |
| O=C(CCC1CCCC1)N/C(=C\c1ccc(Oc2ccccc2I)cc1)C(=O)O | – | 5.15 | 2 | 15 | – | – | – | – |
